Laboratory results reported in patent US20120270929A1, “MODULATION OF TTC39 EXPRESSION TO INCREASE HDL” (ISIS Pharmaceuticals, Inc., priority 2009, published 2012).
Oligonucleotides are written 5' to 3', each unit as a sugar letter and its base; * is a phosphorothioate linkage, no mark a phosphodiester; rarer units and linkages stand in square brackets, end groups in braces. Plain capitals give the bases only. e = 2'-O-(2-methoxyethyl) (MOE); [5mC] = 5-methylcytosine; d = 2'-deoxy (DNA)

Assays:
murine TTC39C mRNA [1] = experiment: Antisense inhibition of mouse TTC39C in mouse primary hepatocytes, single dose; assay type: cell-based; settings: 8,000 nM antisense oligonucleotide, electroporation, approximately 24 hours, TTC39C mRNA by real-time PCR (RTS3266), relative to untreated control cells
Method: Antisense oligonucleotides were designed targeting a TTC39C nucleic acid and were tested for their effects on TTC39C mRNA in vitro. Cultured mouse primary hepatocytes at a density of 30,000 cells per well were transfected by electroporation with 8,000 nM antisense oligonucleotide. After a treatment period of approximately 24 hours, RNA was isolated from the cells and TTC39C mRNA levels were measured by quantitative real-time PCR. Mouse primer probe set RTS3266 (forward sequence […], designated herein as SEQ ID NO: 140; reverse sequence […], designated herein as SEQ ID NO: 141; probe sequence […], designated herein as SEQ ID NO: 142). TTC39C mRNA levels were adjusted according to total RNA content, as measured by RIBOGREEN®. Results are presented as percent inhibition of TTC39C, relative to untreated control cells.
The chimeric antisense oligonucleotides targeting TTC39C were designed as 5-10-5 MOE gapmers. The gapmers are 20 nucleotides in length, wherein the central gap segment is comprised of ten 2′-deoxynucleotides and is flanked on both sides (in the 5′ and 3′ directions) by wings comprising five nucleotides each. Each nucleotide in the 5′ wing segment and each nucleotide in the 3′ wing segment has a 2′-MOE modification. The internucleoside linkages throughout each gapmer are phosphorothioate (P═S) linkages. All cytosine residues throughout each gapmer are 5-methylcytosines. “Mouse Target start site” indicates the 5′-most nucleotide to which the gapmer is targeted in the mouse gene sequence.

murine TTC39C mRNA [2] = experiment: Dose-dependent antisense inhibition of murine TTC39C in mouse primary hepatocytes; assay type: cell-based; settings: electroporation, ~16 h; for IC50: mouse primary hepatocytes
Method: Thirty antisense oligonucleotides were selected from the study described in Example 8 and further tested at various doses in mouse primary hepatocytes. Cells were plated at a density of 30,000 cells per well and transfected using electroporation with 500 nM, 1,000 nM, 2,000 nM, 4,000 nM, and 8,000 nM concentrations of antisense oligonucleotide, as specified in Table 30. After a treatment period of approximately 16 hours, RNA was isolated from the cells and TTC39C mRNA levels were measured by quantitative real-time PCR. Murine primer probe set RTS3266 was used to measure mRNA levels. TTC39C mRNA levels were adjusted according to total RNA content, as measured by RIBOGREEN®. Results are presented as percent inhibition of TTC39C, relative to untreated control cells.

| Substance | % inhibition (murine TTC39C mRNA [1]) | percent inhibition of TTC39C mRNA (murine TTC39C mRNA [2]; 500.0 nM) | percent inhibition of TTC39C mRNA (murine TTC39C mRNA [2]; 1000.0 nM) | percent inhibition of TTC39C mRNA (murine TTC39C mRNA [2]; 2000.0 nM) | percent inhibition of TTC39C mRNA (murine TTC39C mRNA [2]; 4000.0 nM) | percent inhibition of TTC39C mRNA (murine TTC39C mRNA [2]; 8000.0 nM) | IC50 (murine TTC39C mRNA [2]) |
| --- | --- | --- | --- | --- | --- | --- | --- |
| ISIS 474517: 5-10-5 MOE gapmer antisense oligonucleotide targeting murine TTC39C (antisense e[5mC]*e[5mC]*eT*e[5mC]*eG*dA*dA*dT*dG*dT*d[5mC]*dA*dT*d[5mC]*dA*eT*eG*eG*e[5mC]*eG) | 98% | 60% | 67% | 89% | 95% | 97% |  |
| ISIS 474518: 5-10-5 MOE gapmer antisense oligonucleotide targeting murine TTC39C (antisense eG*eT*eA*eG*eT*d[5mC]*dT*dT*dT*dA*dA*dG*dT*d[5mC]*dA*eT*e[5mC]*eG*e[5mC]*eA) | 96% | 61% | 73% | 90% | 94% | 96% |  |
| ISIS 474521: 5-10-5 MOE gapmer antisense oligonucleotide targeting murine TTC39C (antisense eG*eG*e[5mC]*eT*eT*dT*d[5mC]*d[5mC]*dT*dA*dA*dG*dG*dA*dT*e[5mC]*e[5mC]*eA*e[5mC]*e[5mC]) | 97% | 46% | 63% | 84% | 92% | 97% | 500 nM |
| ISIS 474523: 5-10-5 MOE gapmer antisense oligonucleotide targeting murine TTC39C (antisense eG*eG*eT*e[5mC]*eA*d[5mC]*d[5mC]*d[5mC]*d[5mC]*dT*dT*d[5mC]*dG*dG*d[5mC]*e[5mC]*eA*e[5mC]*eA*eA) | 98% | 72% | 80% | 94% | 96% | 97% |  |
| ISIS 474532: 5-10-5 MOE gapmer antisense oligonucleotide targeting murine TTC39C (antisense eG*eT*eT*eG*eT*dG*d[5mC]*d[5mC]*d[5mC]*d[5mC]*dA*dT*d[5mC]*d[5mC]*dA*e[5mC]*eA*eT*e[5mC]*eA) | 99% | 51% | 64% | 84% | 94% | 97% | 400 nM |
| ISIS 474535: 5-10-5 MOE gapmer antisense oligonucleotide targeting murine TTC39C (antisense eT*e[5mC]*e[5mC]*eA*e[5mC]*dT*dT*d[5mC]*dA*dT*dG*dG*d[5mC]*dA*dA*eG*e[5mC]*eT*eT*eG) | 96% | 18% | 35% | 61% | 83% | 93% | 1500 nM |
| ISIS 474538: 5-10-5 MOE gapmer antisense oligonucleotide targeting murine TTC39C (antisense eT*eA*eG*e[5mC]*eA*d[5mC]*dG*d[5mC]*dA*dT*dA*dT*dG*dG*d[5mC]*eG*eG*eG*eA*e[5mC]) | 96% | 51% | 58% | 82% | 88% | 92% | 400 nM |
| ISIS 474540: 5-10-5 MOE gapmer antisense oligonucleotide targeting murine TTC39C (antisense e[5mC]*e[5mC]*eA*e[5mC]*eT*dG*dG*dG*dA*dG*dT*dT*dT*dA*dT*e[5mC]*eA*e[5mC]*eT*eG) | 98% | 43% | 65% | 81% | 92% | 97% | 500 nM |
| ISIS 474543: 5-10-5 MOE gapmer antisense oligonucleotide targeting murine TTC39C (antisense e[5mC]*e[5mC]*eA*eG*eG*dT*dG*dG*d[5mC]*dT*dT*dT*dG*dG*d[5mC]*eT*eT*eG*eG*eG) | 98% | 77% | 88% | 88% | 88% | 94% |  |
| ISIS 474589: 5-10-5 MOE gapmer antisense oligonucleotide targeting murine TTC39C (antisense eT*e[5mC]*e[5mC]*eG*eA*dA*dA*dT*d[5mC]*dG*d[5mC]*dT*d[5mC]*dA*dG*e[5mC]*e[5mC]*eT*eG*e[5mC]) | 100% | 95% | 96% | 97% | 99% | 100% |  |
| ISIS 474592: 5-10-5 MOE gapmer antisense oligonucleotide targeting murine TTC39C (antisense eG*eA*eA*eG*e[5mC]*dA*dT*dA*dT*dT*dG*dA*dT*dG*d[5mC]*e[5mC]*eA*eG*e[5mC]*e[5mC]) | 93% | 24% | 45% | 71% | 84% | 92% | 1200 nM |
| ISIS 474595: 5-10-5 MOE gapmer antisense oligonucleotide targeting murine TTC39C (antisense eG*eT*e[5mC]*eA*eT*d[5mC]*dG*d[5mC]*dA*d[5mC]*dG*d[5mC]*d[5mC]*dA*dA*e[5mC]*eT*eG*e[5mC]*eA) | 97% | 80% | 87% | 95% | 98% | 98% |  |
| ISIS 474596: 5-10-5 MOE gapmer antisense oligonucleotide targeting murine TTC39C (antisense e[5mC]*eG*eA*eT*eT*dA*d[5mC]*dA*d[5mC]*d[5mC]*dA*dG*d[5mC]*d[5mC]*dT*e[5mC]*eT*eT*e[5mC]*eA) | 93% | 47% | 65% | 62% | 90% | 96% | 600 nM |
| ISIS 474598: 5-10-5 MOE gapmer antisense oligonucleotide targeting murine TTC39C (antisense e[5mC]*e[5mC]*e[5mC]*eA*e[5mC]*d[5mC]*dT*dT*dT*dT*dA*dT*dG*dT*dA*eG*eG*e[5mC]*e[5mC]*eG) | 94% | 40% | 37% | 60% | 83% | 94% | 1100 nM |
| ISIS 474599: 5-10-5 MOE gapmer antisense oligonucleotide targeting murine TTC39C (antisense e[5mC]*eG*eT*eT*eG*dA*dT*dG*dT*d[5mC]*d[5mC]*dA*d[5mC]*dA*dT*eA*eG*e[5mC]*eA*e[5mC]) | 92% | 36% | 59% | 60% | 84% | 92% | 900 nM |
| ISIS 474600: 5-10-5 MOE gapmer antisense oligonucleotide targeting murine TTC39C (antisense e[5mC]*e[5mC]*eA*eA*eG*dG*dG*d[5mC]*dT*d[5mC]*dT*dT*d[5mC]*d[5mC]*dG*eT*e[5mC]*eA*eG*e[5mC]) | 90% | 47% | 57% | 66% | 86% | 89% | 600 nM |
